Assay results reported in ChEMBL document CHEMBL1201862, “PubChem BioAssay data set” (2004).
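Each compound was tested at five concentrations against cells in 96-well plates for 48 hours. At the GI50, growth is halved.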 The source made the active and inactive calls. Cut-off read from the data, not from the text of the source: active = GI50 up to about 1.1 µM and inactive = higher. Where a SMILES comes first, the peptide text is derived from it. [ ]: non-standard residue; d: D form. The star is where a group is joined. NMeF = CN[C@@H](Cc1ccccc1)C(=O)O; NMeV = CN[C@H](C(=O)O)C(C)C; Boc = CC(C)(C)OC(=O)*; OBn = c1ccc(CO*)cc1

Columns and labels:
Test in all cases: NCI tumour cell line growth inhibition, 48 h
[1] = system: M19-MEL
[2] = system: KM-20L2
[3] = system: SNB-78
[4] = system: LXFL 529
[5] = system: DMS-114
[6] = system: DMS-273
[7] = system: DLD-1
[8] = system: XF498
[9] = system: RXF 631

Measured: GI50

O=C(CCN1CCCCC1)Nc1ccc2c(c1)C(=O)c1ccc(NC(=O)CCN3CCCCC3)cc1C2=O
inactive: [1] 43.1 µM | [2] 18 µM | [3] 15.3 µM | [4] 1.88 µM | [5] 17.6 µM | [6] 1.71 µM | [7] 2.92 µM

Cc1nc(-n2nc(-c3ccccc3)cc2-c2ccccc2)sc1C(=O)/C=C/c1cccc([N+](=O)[O-])c1
inactive: [1] 16.4 µM | [2] 17.8 µM | [3] 52.7 µM | [5] 11.6 µM | [6] 26.5 µM | [7] 12 µM

CN(C)C(=S)NC(=S)Nc1ccc2ccccc2c1
inactive: [2] 10 µM | [8] 16.1 µM | [3] 23.7 µM | [4] 2.07 µM | [6] 1.67 µM

Cc1ccc(C)c2c1C1CCCCC3(OCCCO3)C21O (stereo unspecified)
inactive: [1] > 100 µM | [2] > 100 µM | [3] > 100 µM | [4] > 100 µM | [5] 80 µM | [6] > 100 µM | [7] > 100 µM

CN(C)C(=O)Oc1c(-c2ccccc2)c(=O)n2c3ccccc3n3c(=O)n(C)c(=O)c1c23
inactive: [1] > 100 µM | [8] > 100 µM | [3] > 100 µM | [9] > 100 µM | [4] > 100 µM | [5] > 100 µM | [6] > 100 µM | [7] > 100 µM

C/C(=N\NC(=O)CC(=O)Nc1ccc(C)cc1)c1cc2ccccc2oc1=O
inactive: [1] > 100 µM | [2] > 100 µM | [8] 1.67 µM | [5] > 100 µM | [6] > 100 µM | [7] > 100 µM

CN(C(=O)c1cccs1)C(=S)N1CCN(c2ccccn2)CC1
inactive: [1] > 100 µM | [2] > 100 µM | [8] > 100 µM | [3] > 100 µM | [4] > 100 µM | [5] > 100 µM | [6] > 100 µM | [7] > 100 µM

CN(CCS(=O)(=O)N1C(=O)C2CCCN2C(=O)[C@@H]1Cc1ccccc1)C(=O)OCc1ccccc1 (stereo partly specified)
inactive: [1] 62.1 µM | [2] 61.8 µM | [3] 92.7 µM | [9] 56.2 µM | [4] 45.4 µM | [5] 59.6 µM | [7] > 100 µM

CN(C)CCN(C)CCC(=O)/C=C/c1ccccc1
inactive: [1] 20.2 µM | [2] 56.2 µM | [8] 22.2 µM | [3] 31 µM | [4] 17.7 µM | [5] 30.2 µM | [6] 17.4 µM | [7] 19.5 µM

O=c1sc(-c2nc3ccccc3[nH]2)c(/N=C/c2ccccc2)n1-c1ccccc1
inactive: [1] 94.2 µM | [8] 31.2 µM | [3] 35.5 µM | [4] 30.3 µM | [6] 28.4 µM | [7] > 100 µM

N#CCCN(C1=NN(C(=O)CC(=O)Nc2ccc(Cl)cc2)C(c2ccccc2)C1)c1ccc(Cl)cc1 (stereo unspecified)
inactive: [1] > 100 µM | [2] > 100 µM | [8] > 100 µM | [3] 40.4 µM | [9] > 100 µM | [4] > 100 µM | [5] > 100 µM | [6] > 100 µM | [7] > 100 µM

O=C1Cc2nc(CO)c(CO)c(CO)c2CO1
inactive: [1] > 100 µM | [2] > 100 µM | [3] > 100 µM | [4] > 100 µM | [5] > 100 µM | [6] > 100 µM | [7] > 100 µM

CC(=O)c1ccc(N2C(=O)C3c4[nH]c5ccccc5c4C4CCC(C(C)(C)C)CC4C3C2=O)cc1 (stereo unspecified)
inactive: [1] 19.2 µM | [2] 18.7 µM | [3] 19.6 µM | [4] 29.3 µM | [5] 23.1 µM | [6] 17.7 µM | [7] 33.2 µM

C=CCC(N(C)C(=O)[C@H](Cc1ccccc1)NC(=O)OCc1ccccc1)P(=O)(Oc1ccccc1)Oc1ccccc1 (stereo partly specified)
inactive: [1] > 100 µM | [2] > 100 µM | [8] > 100 µM | [3] > 100 µM | [4] 6.79 µM | [5] 5.62 µM | [6] > 100 µM | [7] > 100 µM

O=C1CCCCCCCCCCC(=O)N2CCOCCOCCN1Cc1cccc(n1)C2
inactive: [1] > 100 µM | [2] > 100 µM | [3] > 100 µM | [9] > 100 µM | [4] > 100 µM | [5] > 100 µM | [6] > 100 µM | [7] > 100 µM

Cc1c(C(=O)CC(=O)C(=O)Nc2cccc(C(F)(F)F)c2)[n+]([O-])c2ccccc2[n+]1[O-]
inactive: [1] 1.82 µM | [2] 3.8 µM | [3] 6.79 µM | [9] 2.84 µM | [4] 4.02 µM | [5] 1.92 µM | [6] 3.41 µM

O=C(/C=C/c1ccco1)N1CCN(Cc2ccccc2)CC1
inactive: [1] > 100 µM | [2] > 100 µM | [8] > 100 µM | [3] > 100 µM | [9] > 100 µM | [4] > 100 µM | [5] > 100 µM | [6] > 100 µM | [7] > 100 µM

O=C(COc1ccc(Br)cc1Br)N1N=C(c2ccc([N+](=O)[O-])o2)CC1(O)c1ccccc1 (stereo unspecified)
inactive: [2] 17.9 µM | [3] 27.2 µM | [4] 8.73 µM | [5] 6.11 µM | [6] 12.8 µM | [7] 10.7 µM

Cn1c2c(c3ccccc31)C1CCCCCCC1C1C(=O)OC(=O)C21 (stereo unspecified)
inactive: [1] 37.4 µM | [8] 43.6 µM | [3] > 100 µM | [9] 33.3 µM | [4] 39.7 µM | [5] 29.1 µM | [6] 20 µM | [7] 33.6 µM

CN(C)c1ccc(/C=C/c2ccc(/C=C/c3ccc(N(C)C)cc3)cc2)cc1
inactive: [1] > 100 µM | [2] > 100 µM | [3] > 100 µM | [9] > 100 µM | [4] 75.9 µM | [6] > 100 µM | [7] 33.6 µM

CC1C(=O)O[C@H]2C1CC[C@@]1(C)[C@H](O)CC[C@@]13C[C@]2(O)OO3 (stereo partly specified)
inactive: [1] > 100 µM | [2] > 100 µM | [4] > 100 µM | [5] > 100 µM | [6] > 100 µM | [7] > 100 µM

CC1C[C@@]2(c3ccccc3)C(=O)CCC[C@H]2N1 (stereo partly specified)
inactive: [1] > 100 µM | [2] > 100 µM | [3] > 100 µM | [4] > 100 µM | [5] > 100 µM | [6] > 100 µM | [7] > 100 µM

CC(C)[C@@H](C(=O)N1CCC[C@H]1C(=O)OCc1ccccc1)N(C)C(=O)[C@H](C(C)C)N(C)C(=O)[C@H](Cc1ccccc1)N(C)C(=O)[C@H](NC(=O)OC(C)(C)C)C(C)C (Boc-[dV][NMeF][NMeV][NMeV]P-OBn)
inactive: [4] 22.2 µM | [5] 19.6 µM | [6] 24.3 µM | [7] 25.4 µM
